From patent publication US12433882B2, “Treatments for amyotrophic lateral sclerosis using dazucorilant” (Corcept Therapeutics Incorporated, priority 2022, dated 2025)

What was measured:
[1] = molecular target: T1, mineralocorticoid receptor (MR) (Homo sapiens, UniProt P08235); assay: MR reporter gene assay; type: cell-based
T1 sequence (P08235 1-984): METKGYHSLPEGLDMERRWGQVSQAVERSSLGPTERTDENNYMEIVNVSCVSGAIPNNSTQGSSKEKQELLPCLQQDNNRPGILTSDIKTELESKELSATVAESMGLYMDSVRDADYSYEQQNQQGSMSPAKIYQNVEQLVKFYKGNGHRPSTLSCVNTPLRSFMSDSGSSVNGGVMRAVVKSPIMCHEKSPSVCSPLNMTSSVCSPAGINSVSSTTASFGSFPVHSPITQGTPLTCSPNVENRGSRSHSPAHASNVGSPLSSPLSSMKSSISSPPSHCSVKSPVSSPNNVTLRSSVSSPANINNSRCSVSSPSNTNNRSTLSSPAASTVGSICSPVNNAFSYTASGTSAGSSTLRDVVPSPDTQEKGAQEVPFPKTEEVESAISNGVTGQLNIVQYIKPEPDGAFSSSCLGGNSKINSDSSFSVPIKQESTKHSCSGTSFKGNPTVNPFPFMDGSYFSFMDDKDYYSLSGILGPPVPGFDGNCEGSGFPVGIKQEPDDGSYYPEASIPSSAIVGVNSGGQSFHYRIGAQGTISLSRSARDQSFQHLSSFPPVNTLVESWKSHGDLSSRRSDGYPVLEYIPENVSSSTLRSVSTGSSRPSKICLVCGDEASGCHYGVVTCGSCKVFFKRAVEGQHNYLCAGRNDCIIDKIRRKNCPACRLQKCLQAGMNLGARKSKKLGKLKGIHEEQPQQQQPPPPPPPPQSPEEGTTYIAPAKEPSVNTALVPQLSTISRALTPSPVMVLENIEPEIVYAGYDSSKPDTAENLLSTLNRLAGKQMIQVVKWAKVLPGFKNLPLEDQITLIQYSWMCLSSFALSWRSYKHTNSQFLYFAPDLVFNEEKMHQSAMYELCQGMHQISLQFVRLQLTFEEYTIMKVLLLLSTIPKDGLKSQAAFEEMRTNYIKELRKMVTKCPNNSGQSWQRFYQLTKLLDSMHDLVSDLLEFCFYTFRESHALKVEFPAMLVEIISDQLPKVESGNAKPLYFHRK

[2] = tested on: GR; assay: Dexamethasone-induced TAT activity in primary hepatocytes from monkeys; type: cell-based
Protocol: (§1) Dazucorilant is selective for GR over other nuclear hormone receptors, and a range of other receptors, enzymes, and ion channels. For example, dazucorilant has high selectivity for GR relative to the progesterone receptor (PR), androgen receptor, and estrogen receptor, showing no significant binding to these receptors at a concentration of 10 μM (0%, 1.5% and […], respectively).

[3] = molecular target: T2, GR (Homo sapiens, UniProt P04150); assay: Inhibition of dexamethasone effect on TAT activity, human liver carcinoma cell line; type: cell-based; parameters: endogenous in cells; host or cells: human liver carcinoma cell line (probably HepG2, inferred); settings: read-out: Ki, inhibition of dexamethasone effects on TAT activity
T2 sequence (P04150 1-777): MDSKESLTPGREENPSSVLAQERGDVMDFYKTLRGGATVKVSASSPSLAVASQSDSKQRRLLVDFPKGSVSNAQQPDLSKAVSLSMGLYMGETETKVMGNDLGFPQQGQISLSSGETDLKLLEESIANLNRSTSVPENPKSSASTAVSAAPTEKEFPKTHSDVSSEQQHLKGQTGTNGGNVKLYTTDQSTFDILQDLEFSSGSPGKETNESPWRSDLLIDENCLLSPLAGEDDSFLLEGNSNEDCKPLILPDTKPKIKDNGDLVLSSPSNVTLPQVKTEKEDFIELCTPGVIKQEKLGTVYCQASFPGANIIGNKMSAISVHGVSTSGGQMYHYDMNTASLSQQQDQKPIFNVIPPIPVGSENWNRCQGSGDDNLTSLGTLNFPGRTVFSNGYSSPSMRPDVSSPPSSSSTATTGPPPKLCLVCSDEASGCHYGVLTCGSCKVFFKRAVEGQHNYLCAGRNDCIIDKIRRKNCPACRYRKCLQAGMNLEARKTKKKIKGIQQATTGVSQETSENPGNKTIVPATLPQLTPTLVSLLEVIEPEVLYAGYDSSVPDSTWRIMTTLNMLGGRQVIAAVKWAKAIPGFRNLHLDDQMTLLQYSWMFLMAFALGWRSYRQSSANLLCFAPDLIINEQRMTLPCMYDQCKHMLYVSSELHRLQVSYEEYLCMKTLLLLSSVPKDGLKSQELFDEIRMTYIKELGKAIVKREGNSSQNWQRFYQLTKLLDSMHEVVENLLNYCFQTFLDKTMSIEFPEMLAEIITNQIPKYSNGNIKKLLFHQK
Source text: The term “glucocorticoid receptor modulator” (GRM) refers to any compound which modulates glucocorticoid binding to GR, or which modulates any biological response associated with the binding of GR to an agonist. For example, a GRM that acts as an agonist, such as dexamethasone, increases the activity of tyrosine aminotransferase (TAT) in HepG2 cells (a human liver hepatocellular carcinoma cell line; ECACC, UK). A GRM that acts as an antagonist, such as mifepristone, decreases the activity of tyrosine aminotransferase (TAT) in HepG2 cells.

[4] = tested on: effect of prednisone on eosinophils, lymphocytes, neutrophils, osteocalcin; assay: First In Human study Part 3, proof of pharmacological effect (prednisone challenge); type: in vivo; settings: prednisone+dazucorilant vs. prednisone alone
Source text: Linear mixed model of PD parameter estimates from part 3 of the FIE study, including terms for treatment fitted as a fixed effect, subject fitted as a random effect, and baseline concentration values fitted as a covariate. AUEC, area under the effect curve; cfb, change from baseline; CI, confidence interval; Emax, maximum change; ns, not significant.

[5] = molecular target: T2, GR; assay: Dexamethasone-induced TAT activity in primary hepatocytes from humans; type: cell-based; parameters: endogenous in cells; host or cells: primary hepatocytes from humans
Protocol: as §1

O=C(c1ccccn1)[C@]12Cc3cnn(-c4ccc(F)cc4)c3C=C1CCN(S(=O)(=O)c1ccc(C(F)(F)F)cc1)C2 [dazucorilant, (R)-(1-(4-fluorophenyl)-6-((4-(trifluoromethyl)phenyl)sulfonyl)-4,4a, 5,6,7,8-hexahydro-1-H-pyrazolo[3,4-g]isoquinolin-4a-yl) (pyridin-2-yl)methanone]
inhibition at 5 µM [1]: 23%
dexamethasone-induced increase in TAT activity [2]: prevented the dexamethasone-induced increase in TAT activity
Ki [3]: 14 nM
effect of dazucorilant on prednisone-induced changes in eosinophils, lymphocytes, osteocalcin, neutrophils [4]: ameliorated the effect of prednisone on these parameters
dexamethasone-induced increase in TAT activity [5]: prevented the dexamethasone-induced increase in TAT activity
